In article PMC8533949, “Biocatalytic Production of Aldehydes: Exploring the Potential of Lathyrus cicera Amine Oxidase” (Biomolecules, 2021):

Tested on: T1, Lathyrus cicera amine oxidase (LCAO)
T1 construct: copper/TPQ enzyme
Assay: coupled peroxidase assay (AAP/DCHBS, […] nm), initial rates
Type: biochemical
Conditions: pH 7, 20 mM phosphate, 25 °C, air O2

SMILES	Km [µM]
CN(C)CCCN [19a]	8800
COc1ccc(CCN)cc1O [3a]	1580
NCCCN1CCOCC1 [15a]	17000
NCCC1CCCCC1 [13a]	1440
NCCc1ccc(O)cc1 [1a]	600
COc1ccc(CCN)cc1 [6a]	5370
COc1cccc(CCN)c1 [7a]	470
NCCc1ccc2c(c1)OCO2 [8a]	3830
NCCC1=CCCCC1 [14a]	1900
NCCN1CCCCC1 [11a]	420
NCCCn1ccnc1 [16a]	610
NCCc1ccccc1 [2a]	1200
NCCN1CCOCC1 [12a]	6460
NCCc1ccc(Cl)cc1 [10a]	3380
CN(C)CCN [18a]	230
COc1cc(CCN)ccc1O [4a]	1310
NCCCN1CCCC1 [17a]	2300
COc1ccc(CCN)cc1OC [5a]	1000
